{"source": "patent US20060251714A1", "about": "“Pharmaceutical formulations of amyloid inhibiting compounds” (priority 2005, published 2006)", "type_in_all_cases": "in vivo, human", "key": {"[1]": {"system": "mild to moderate AD patients", "assay": "Example 11: open-label extension in AD patients, psychometric tests (ADAS-cog, CDR)", "details": "for average CDR score (change): after 20 months total on study medication, reported 12-month mean change +1.4 to 2.2 points in comparable patients", "description": "The ADAS-cog test is described in […] Annals of Neurology 23:477-484, which is incorporated herein by reference. It is a validated scale developed specifically as a research instrument to evaluate the severity of cognitive deficits characteristic of patients with AD. This test can usually be administered to participants in less than one hour. The ADAS-cog ranges from 0 to 70 points, with higher scores indicating a greater degree of cognitive impairment. Improved performance can be measured in patients treated with formulations of the invention compared to placebo-treated patients at various time intervals. Improvement can be measured by detecting an improved score in the treated patients compared to untreated controls after 6 months, preferably 12 months, more preferably 18 months or longer. […] Patients with Alzheimer's disease typically show an annual increase in ADAS-cog scores of from about 4-9. An improvement would provide for a lessening in the increase compared to untreated controls, for example, an annual increase of less than about 5 points or 4 points, preferably 3 points, more preferably 2 points or 1 point or even a stabilization or decrease in the score.\nThe CDR is described in Morris, J (1993) Neurology 43: 2412-2414, which is incorporated herein by reference. Further to the discussion of the CDR test below, it is a global rating scale of dementia that is derived from ratings of impairment assigned by an independent rater in six domains, after approximately a 90-minute interview of the caregiver and participant (Hughes C P, Berg L, Danziger W L, et al. A New Clinical Scale for the Staging of Dementia. Brit. J. Psychiat 1982; 140: 566-572). The CDR scale is from 0-18 with a higher score indicating a worsening impairment. Impairment in each of the six domains is rated as “none” (O), “questionable” (0.5), “mild” (1), “moderate” (2) or “severe” (3). Improvement can be measured by detecting a lower score in the treated patients compared to controls after 6 months, preferably 12 months, more preferably 18 months or longer. […] Patients with Alzheimer's disease typically show an annual increase in CDR scores of from about 1-3. An improvement would provide for an annual increase of less than about 3 points or 2 points, preferably 1 point, more preferably 0.5 points or 0.25 points or even an improvement (reduction) in the score.\nThe patients from the clinical studies in Example 10 are offered 3-APS (formulation of Table 5 above) at 150 mg BID for an additional 17 months (thus, 20 months total) in an open-label study. For doses at multiples of 50 mg, multiple 50 mg tables are administered. Twenty-four mild to moderate AD patients complete the study. Psychometric tests (ADAS-cog) are performed at each visit, that is every 3 months for the first 9 months and every 4 months for the last […]. Overall, approximately 70% of the mild AD patients show stabilized or improved cognitive function tests after 20 months."}, "[2]": {"assay": "Example 8 Part I: multiple rising oral doses of NC-758 in healthy young male and elderly subjects, plasma pharmacokinetics", "details": "fasted; for AUC∞: mean, only subjects with estimable elimination rate constant", "protocol": "(§1) In the following examples and elsewhere herein, terms are as defined below. The pharmacokinetic parameters were derived by non-compartmental analysis using WinNonlin® (Pharsight Corporation, Mountain View, Calif.) or SAS® for Windows® (SAS Institute Inc., Cary, N.C.).\nThe pharmacokinetic profile of multiple rising oral doses of 3-APS free acid (NC-758 of Table 3 above) in healthy male young subjects (18-45 years) and healthy male and female elderly (≧55 years) subjects is assessed. For doses at multiples of 100 mg, multiple 100 mg tables are administered. […] Part I is a randomized, double-blind, placebo-controlled study to assess the pharmacokinetic profile of 2 multiple rising oral doses of NC-758 in healthy young (18-45 years) male subjects. […] In Part I, 3-APS is administered as a single dose on Days 1 and 12 and on Days 2-11, twice daily at 12 hour intervals. Blood samples are collected through 24 h after the first dose on Day 1, before each morning dose on Days 2 to 11, and through 48 h after the final dose on Day 12. For Part II, blood samples are collected through 36 h. Plasma concentrations of 3-APS are determined using a validated LC-MS/MS method."}, "[3]": {"assay": "Example 10: 12-week placebo-controlled study in mild to moderate Alzheimer's Disease patients, plasma pharmacokinetics", "details": "AD patients; for AUC∞: mean, only patients with estimable elimination rate constant", "description": "as §1\nAUCss—the area under the plasma concentrations versus time curve during a dosing interval at steady state.\nA multicenter, randomized, double-blind, placebo-controlled and parallel designed study is made with 3-APS in the formulation described in Table 5 above in patients suffering from mild to moderate Alzheimer's Disease (AD). An objective of this study is to assess the safety and tolerability of 3-APS and to assess its pharmacokinetics in AD patients. A total of fifty-eight (58) mild to moderate AD patients (MMSE scores=13 to 26) are enrolled from 6 centers in the United States. Patients are randomized to receive in 1:1:1:1 ratio of NC-758-1 at 50, 100, 150 mg BID or placebo BID for 12 weeks. Study medication is administered orally (tablet). For doses at multiples of 50 mg, multiple 50 mg tables are administered. Each patient is evaluated on 6 occasions at screening, baseline [Week 0], weeks 2, 4, 8 and 12. Blood samples are collected from each patient prior to dosing and at specified time points through 12 h post-dose after the first dose (Week 0) and the last dose (Week 12). Blood samples are also collected prior to the first dose of the day during Week 2, 4 and 8 visits."}, "[4]": {"details": "NC-758 100 mg BID, Day 12 (repeated), young (18-45 years) male subjects, n = 6, mean"}, "[5]": {"details": "NC-758 200 mg BID, Day 1, elderly (≧55 years) male and female subjects, n = 6, mean"}, "[6]": {"details": "NC-758 200 mg BID, Day 1, young (18-45 years) male subjects, n = 6, mean"}, "[7]": {"details": "NC-758 200 mg BID, Day 12 (repeated), elderly (≧55 years) male and female subjects, n = 6, mean"}, "[8]": {"details": "NC-758 200 mg BID, Day 12 (repeated), young (18-45 years) male subjects, n = 5, mean"}, "[9]": {"details": "50 mg BID (Table 5 tablet), Week 0 (single dose), n = 15, mean"}, "[10]": {"details": "100 mg BID (Table 5 tablet), Week 0 (single dose), n = 16, mean"}, "[11]": {"details": "150 mg BID (Table 5 tablet), Week 0 (single dose), n = 14, mean"}}}
{"smiles": "NCCCS(=O)(=O)O", "note": "[3-APS, 3-amino-1-propanesulfonic acid]", "values": [{"measurement": "mild AD patients showing stabilized or improved cognitive function tests", "setting": "[1]; 150 mg BID open-label (Table 5 tablet), after 20 months", "value": "approximately 70%"}, {"measurement": "change from baseline in average ADAS-cog score", "setting": "[1]; mild AD patients (n=13), 150 mg BID open-label, 20 months, comparable historical controls +8.6 points", "value": "+3.5 points"}, {"measurement": "average CDR score (change)", "setting": "[1]; mild AD patients", "value": "+2.36 points"}, {"measurement": "average ADAS-cog score (change)", "setting": "[1]; mild to moderate AD patients (n=24), 150 mg BID open-label, 20 months, comparable historical controls +10.3 points", "value": "+7.8 points"}, {"measurement": "average CDR score (change)", "setting": "[1]; moderate AD patients", "value": 2.77, "unit": "points"}, {"measurement": "AUC∞", "setting": "[2]; NC-758 100 mg BID, Day 1, young (18-45 years) male subjects", "value": 1017, "unit": "ng·h/mL"}, {"measurement": "Cmax", "setting": "[2]; NC-758 100 mg BID, Day 1, young (18-45 years) male subjects, n = 6, mean", "value": 282, "unit": "ng/mL"}, {"measurement": "AUC0-12h", "setting": "[2]; [4]", "value": 1434, "unit": "ng·h/mL"}, {"measurement": "Cmax", "setting": "[2]; [4]", "value": 256, "unit": "ng/mL"}, {"measurement": "AUC∞", "setting": "[2]; NC-758 200 mg BID, Day 1, elderly (≧55 years) male and female subjects", "value": 5503, "unit": "ng·h/mL"}, {"measurement": "AUC0-12h", "setting": "[2]; [5]", "value": 5020, "unit": "ng·h/mL"}, {"measurement": "Cmax", "setting": "[2]; [5]", "value": 897, "unit": "ng/mL"}, {"measurement": "AUC∞", "setting": "[2]; NC-758 200 mg BID, Day 1, young (18-45 years) male subjects", "value": 3206, "unit": "ng·h/mL"}, {"measurement": "AUC0-12h", "setting": "[2]; [6]", "value": 2865, "unit": "ng·h/mL"}, {"measurement": "Cmax", "setting": "[2]; [6]", "value": 517, "unit": "ng/mL"}, {"measurement": "AUC0-12h", "setting": "[2]; [7]", "value": 6287, "unit": "ng·h/mL"}, {"measurement": "Cmax", "setting": "[2]; [7]", "value": 880, "unit": "ng/mL"}, {"measurement": "AUC0-12h", "setting": "[2]; [8]", "value": 4152, "unit": "ng·h/mL"}, {"measurement": "Cmax", "setting": "[2]; [8]", "value": 581, "unit": "ng/mL"}, {"measurement": "AUC∞", "setting": "[3]; 50 mg BID (Table 5 tablet), Week 0 (single dose)", "value": 1396, "unit": "ng·h/mL"}, {"measurement": "AUC(0-t)", "setting": "[3]; [9]", "value": 1321, "unit": "ng·h/mL"}, {"measurement": "Cmax", "setting": "[3]; [9]", "value": 310, "unit": "ng/mL"}, {"measurement": "Tmax", "setting": "[3]; 50 mg BID (Table 5 tablet), Week 12 (repeated), n = 15, median", "value": 3, "unit": "h"}, {"measurement": "AUC∞", "setting": "[3]; 100 mg BID (Table 5 tablet), Week 0 (single dose)", "value": 2569, "unit": "ng·h/mL"}, {"measurement": "AUC(0-t)", "setting": "[3]; [10]", "value": 2467, "unit": "ng·h/mL"}, {"measurement": "Cmax", "setting": "[3]; [10]", "value": 618, "unit": "ng/mL"}, {"measurement": "Tmax", "setting": "[3]; 100 mg BID (Table 5 tablet), Week 0 (single dose), n = 16, median", "value": 4.5, "unit": "h"}, {"measurement": "Tmax", "setting": "[3]; 100 mg BID (Table 5 tablet), Week 12 (repeated), n = 14, median", "value": 3.5, "unit": "h"}, {"measurement": "AUC∞", "setting": "[3]; 150 mg BID (Table 5 tablet), Week 0 (single dose)", "value": 3418, "unit": "ng·h/mL"}, {"measurement": "AUC(0-t)", "setting": "[3]; [11]", "value": 2792, "unit": "ng·h/mL"}, {"measurement": "Cmax", "setting": "[3]; [11]", "value": 624, "unit": "ng/mL"}, {"measurement": "Tmax", "setting": "[3]; 150 mg BID (Table 5 tablet), Week 12 (repeated), n = 11, median", "value": 3, "unit": "h"}]}
